Laboratory results reported in patent US8188138B2, “Sulphonylpyrrole hydrochloride salts as histone deacetylases inhibitors” (4SC AG, priority 2005, dated 2012).
Read-outs that look alike come from different tables or passages of the source.

Tests used:
[1] = tested on: HeLa cervical carcinoma cells; test: Cellular cytotoxicity assay (Alamar Blue), HeLa; type: cell-based; details: Homo sapiens, 72 h, range stated for the listed group
Method: (§1) The anti-proliferative activity of the histone deacetylase inhibitory compounds as described herein, was evaluated using the following cell lines: HeLa and HeLa—KB (cervical carcinoma), H460 (non small cell lung cancer), A549 (non-small cell lung cancer), MCF7 (breast carcinoma), MCF10A (normal, non tumorigenic breast epithelial), MDA-MB468 (breast carcinoma), MDA-MB435 (breast carcinoma), MDA-MB231 (breast carcinoma), SKBR-3 (breast carcinoma), SKOV-3 (ovarial carcinoma), A-2780 (ovarial carcinoma), RKO (colon carcinoma), HCT-15 (colon carcinoma), HCT-116 (colon carcinoma), PC3 (prostate carcinoma), BPH1 (benign prostate hyperplasia), AsPC1 (pancreatic carcinoma), Cal27 (tongue carcinoma), A-431 (vulva carcinoma), HeclA (endometrial carcinoma), Saos-2 (osteosarcoma), U87MG (glioblastoma), WM266-4 (melanoma), K562 (chronic myeloid carcinoma), EOL1 (acute hypereosinophilic myeloid leukemia), CCRF-CEM and CCRF-CEM VCR1000 (acute lymphoblastic leukemia sensitive and resistant towards Vincristine). For quantification of cellular proliferation/living cells the Alamar Blue (Resazurin) cell viability assay was applied (O'Brien et al. Eur J Biochem 267, 5421-5426, 2000). In this assay Resazurin is reduced to the fluorescent resorufin by cellular dehydrogenase activity, correlating with viable, proliferating cells. The examples were dissolved as 20 mM solutions in dimethylsulfoxide (DMSO) and subsequently diluted in semi-logarithmic steps. Cell lines were seeded at respective density into 96 well flat bottom plates in a volume of 200 μl per well. 24 hours after seeding 1 μl each of the compound dilutions were added into each well of the 96 well plate. Each compound dilution was tested as quadruplicates. Wells containing untreated control cells were filled with 200 μl DMEM medium containing 0.5% v:v DMSO. The cells were then incubated with the substances for 72 hours at 37° C. in a humidified atmosphere containing 5% carbon dioxide. To determine the viability of the cells, 20 μl of an Resazurin solution (Sigma; 90 mg/l) were added. After 4 hours incubation at 37° C. the fluorescence was measured at an extinction of 544 nm and an emission of 590 nm. For the calculation of the cell viability the emission value from untreated cells was set as 100% viability and the emission rates of treated cells were set in relation to the values of untreated cells. Viabilities were expressed as % values. The corresponding IC50 values of the compounds for cytotoxic activity are determined from the concentration-effect curves by means of non-linear regression.

[2] = tested on: RKO colon carcinoma cells; test: Cell-cycle dependent cytotoxicity, RKO exop21 cell system; type: cell-based; details: Homo sapiens, 72 h, range stated for the listed group
Method: For determination of cell-cycle dependent cytotoxicity, the RKO exop21 cell system was applied (Schmidt et al. Oncogene 19: 2423-2429, 2000). Briefly, RKO cells with/without p21^waf1 expression (2×10^4 cells/well induced, 6×10^3 cells/well not induced) were treated with the examples for 72 h and metabolic activity quantified as described before. The expression of p21^waf1 was induced by treatment with Pronasterone A, causing a complete proliferation arrest of RKO cells in the G1 and G2 phases of the cell division cycle.

[3] = tested on: broad selection of non-malignant cell lines and fully transformed malignant cancer cell lines; test: Anti-proliferative activity across cell line panel (Alamar Blue); type: cell-based; details: mean over non-malignant and malignant cell lines
Method: as §1

[4] = tested on: A549 cell line; test: Combination experiment with Trail in A549; type: cell-based; details: example at about its IC50 combined with Trail
Method: A549 non-small cell lung cancer, MDA-MB468 breast cancer and […] colorectal cancer cell lines were pretreated with the examples for 4 h before adding the chemotherapeutic agents or Trail and further incubation for 72 h total. The IC50 values of these combinations were determined from concentration-effect curves and compared to IC50 values of cell treated with the anti-cancer agent only.

[5] = tested on: MDA-MB468 breast cancer cells; test: Breast cancer cell differentiation assay (Nile Red, flow cytometry); type: cell-based; details: 24 h; for Neutral & phospholipids (%): differentiated cells; for Phospholipids (%): undifferentiated cells
Method: For quantification of MDA-MB468 breast cancer cell differentiation (described by Munster et al. Canc. Res. 61(23), pp 8492, 2001), 1× E6 cells were seeded in 10 cm cell culture dishes and, after cultivation for 24 h, treated with HDI for further 24 h. Finally, cells were collected by trypsination, washed twice with PBS and resuspended in 1 ml of staining solution ([…] Nile Red in PBS). After incubation for at least 5 min at room temperature, cells were analysed by flow cytometry on a FACS Calibur device (Ex 488 nm, Em. at 530 nm/FL-1 and >630 nm/FL-3). From respective histograms the percentage of cells with fluorescence at 650 nm (phospholipids) and 530 nm+650 nm (phospho- and neutral lipids) were calculated. For microscopic analysis, MDA-MB468 cells were cultivated on two-well chamber slides, treated with test compound for 24 h, fixed with 1.5 vol % glutaraldehyde/PBS and finally treated with staining solution. After washing with PBS, cells were analysed by fluorescence microscopy.
The percentage of differentiated cells with neutral and phospholipids as well as undifferentiated cells with phospholipids only are summarized in the table 5.

[6] = arrested RKO cells, p21waf1 expressed, read-out: RKO arrested (p21^waf1 expressed) IC50
[7] = proliferating RKO cells, read-out: RKO proliferating IC50

**Q.** With `O=C(/C=C/c1ccn(S(=O)(=O)c2ccc(-c3ccccc3)cc2)c1)NO` [Compound 3, (E)-3-[1-(Biphenyl-4-sulfonyl)-1H-pyrrol-3-yl]-N-hydroxy-acrylamide] as the molecule, how does the IC50 [1] read?
**A.** 800 to 21600 nM

**Q.** What about the IC50 [2, 6] of the same molecule?
**A.** 450 to 15000 nM

**Q.** And the IC50 [2, 7]?
**A.** 150 to 5100 nM

**Q.** And the IC50 [3]?
**A.** 850 nM

**Q.** And the “Effect of combination with Trail” value [4]?
**A.** synergism is highly likely

**Q.** And the “Neutral & phospholipids (%)” value ([5]; 0.6 μM)?
**A.** 34.6%

**Q.** And the “Phospholipids (%)” value ([5]; 0.6 μM)?
**A.** 62.6%

**Q.** And the “Neutral & phospholipids (%)” value ([5]; 1.2 μM)?
**A.** 51.2%

**Q.** What about the “Phospholipids (%)” value ([5]; 1.2 μM) of the same molecule?
**A.** 45.7%

**Q.** Which IC50 [1] does the source give for `CN(C)c1ccc(S(=O)(=O)n2ccc(/C=C/C(=O)Nc3ccccc3N)c2)cc1` [Compound 8, (E)-N-(2-Amino-phenyl)-3-[1-(4-dimethylamino-benzenesulfonyl)-1H-pyrrol-3-yl]-acrylamide] here?
**A.** 800 to 21600 nM

**Q.** With `CN(CCc1cc2ccccc2[nH]1)Cc1ccc(S(=O)(=O)n2ccc(/C=C/C(=O)NO)c2)cc1` [Compound 9, (E)-N-Hydroxy-3-(1-[4-(([2-(1H-indol-2-yl)-ethyl]-methyl-amino)-methyl)-benzenesulfonyl]-1H-pyrrol-3-yl)-acrylamide] as the molecule, how does the IC50 [1] read?
**A.** 70 to 5000 nM

**Q.** What about the IC50 [2, 6] of the same molecule?
**A.** 450 to 15000 nM

**Q.** And the IC50 [2, 7]?
**A.** 150 to 5100 nM

**Q.** What about the IC50 [3] of the same molecule?
**A.** 3700 nM

**Q.** And the “Effect of combination with Trail” value [4]?
**A.** synergism is highly likely

**Q.** And the “Neutral & phospholipids (%)” value ([5]; 3 μM)?
**A.** 71.2%

**Q.** And the “Phospholipids (%)” value ([5]; 3 μM)?
**A.** 25.3%

**Q.** What about the “Neutral & phospholipids (%)” value ([5]; 6 μM) of the same molecule?
**A.** 64.6%

**Q.** And the “Phospholipids (%)” value ([5]; 6 μM)?
**A.** 27.9%

**Q.** Which IC50 [1] does the source give for `O=C(/C=C/c1ccn(S(=O)(=O)c2ccc(CNCc3cccnc3)cc2)c1)NO` [Compound 11, (E)-N-Hydroxy-3-[1-(4-{[(pyridin-3-ylmethyl)-amino]-methyl}-benzenesulfonyl)-1H-pyrrol-3-yl]-acrylamide] here?
**A.** 70 to 5000 nM

**Q.** With `O=C(/C=C/c1ccn(S(=O)(=O)c2ccc(CNCc3c[nH]c4ccccc34)cc2)c1)NO` [Compound 12, (E)-N-Hydroxy-3-[1-(4-{[(1H-indol-3-ylmethyl)-amino]-methyl}-benzenesulfonyl)-1H-pyrrol-3-yl]-acrylamide] as the molecule, how does the IC50 [1] read?
**A.** 70 to 5000 nM

**Q.** With `O=C(/C=C/c1ccn(S(=O)(=O)c2ccc(CNCc3ccccc3)cc2)c1)NO` [Compound 13, (E)-3-{1-[4-(Benzylamino-methyl)-benzenesulfonyl]-1H-pyrrol-3-yl}-N-hydroxy-acrylamide] as the molecule, how does the IC50 [1] read?
**A.** 70 to 5000 nM

**Q.** For `CC(C)CNCc1ccc(S(=O)(=O)n2ccc(/C=C/C(=O)NO)c2)cc1` [Compound 14, (E)-N-Hydroxy-3-{1-[4-(isobutylamino-methyl)-benzenesulfonyl]-1H-pyrrol-3-yl}-acrylamide], which IC50 [1] is on record?
**A.** 70 to 5000 nM

**Q.** Which IC50 [1] does the source give for `O=C(/C=C/c1ccn(S(=O)(=O)c2ccc(CNCc3ccc4[nH]ccc4c3)cc2)c1)NO` [Compound 15, (E)-N-Hydroxy-3-[1-(4-{[(1H-indol-5-ylmethyl)-amino]-methyl}-benzenesulfonyl)-1H-pyrrol-3-yl]-acrylamide] here?
**A.** 70 to 5000 nM

**Q.** For `O=C(/C=C/c1ccn(S(=O)(=O)c2ccc(CNCc3ccncc3)cc2)c1)NO` [Compound 16, (E)-N-Hydroxy-3-[1-(4-{[(pyridin-4-ylmethyl)-amino]-methyl}-benzenesulfonyl)-1H-pyrrol-3-yl]-acrylamide], which IC50 [1] is on record?
**A.** 70 to 5000 nM

**Q.** Which IC50 [1] does the source give for `NCc1ccc(S(=O)(=O)n2ccc(/C=C/C(=O)NO)c2)cc1` [Compound 17, (E)-3-[1-(4-Aminomethyl-benzenesulfonyl)-1H-pyrrol-3-yl]-N-hydroxy-acrylamide] here?
**A.** 70 to 5000 nM

**Q.** What about the melting point of the same molecule?
**A.** 227 to 228.6 °C

**Q.** Which IC50 [1] does the source give for `O=C(/C=C/c1ccn(S(=O)(=O)c2ccc(-c3ccncc3)cc2)c1)NO` [Compound 18, (E)-N-Hydroxy-3-[1-(4-pyridin-4-yl-benzenesulfonyl)-1H-pyrrol-3-yl]-acrylamide] here?
**A.** 70 to 5000 nM

**Q.** What about the melting point of the same molecule?
**A.** 219.3 to 221.4 °C

**Q.** For `O=C(/C=C/c1ccn(S(=O)(=O)c2ccc(-c3cn[nH]c3)cc2)c1)NO` [Compound 19, (E)-N-Hydroxy-3-[1-[4-(1H-pyrazol-4-yl)-benzenesulfonyl]-1H-pyrrol-3-yl]acrylamide], which IC50 [1] is on record?
**A.** 70 to 5000 nM

**Q.** Which results are given for `Nc1ccccc1NC(=O)/C=C/c1ccn(S(=O)(=O)c2ccc(-c3ccncc3)cc2)c1` [Compound 20, (E)-N-(2-Amino-phenyl)-3-[1-(4-pyridin-4-yl-benzenesulfonyl)-1H-pyrrol-3-yl]-acrylamide]?
**A.** IC50 [1]: 70 to 5000 nM; melting point: 244.2 to 246.5 °C

**Q.** Which results are given for `Nc1ccccc1NC(=O)/C=C/c1ccn(S(=O)(=O)c2ccc(-c3cccnc3)cc2)c1` [Compound 21, (E)-N-(2-Amino-phenyl)-3-[1-(4-pyridin-3-yl-benzenesulfonyl)-1H-pyrrol-3-yl]-acrylamide]?
**A.** IC50 [1]: 70 to 5000 nM; melting point: 199.7 to 202.3 °C

**Q.** What does the source list for `Nc1ccccc1NC(=O)/C=C/c1ccn(S(=O)(=O)c2ccc(-c3cn[nH]c3)cc2)c1` [Compound 22, (E)-N-(2-Amino-phenyl)-3-{1-[4-(1H-pyrazol-4-yl)-benzenesulfonyl]-1H-pyrrol-3-yl}-acrylamide]?
**A.** IC50 [1]: 70 to 5000 nM; melting point: 232.3 to 240.9 °C

**Q.** With `O=C(/C=C/c1ccn(S(=O)(=O)c2cccc(-c3ccccc3)c2)c1)NO` [Compound 23, (E)-3-[1-(Biphenyl-3-sulfonyl)-1H-pyrrol-3-yl]-N-hydroxy-acrylamide] as the molecule, how does the IC50 [1] read?
**A.** 70 to 5000 nM

**Q.** What about the melting point of the same molecule?
**A.** 114 to 159.4 °C

**Q.** With `O=C(/C=C/c1ccn(S(=O)(=O)c2ccc(-n3cccn3)cc2)c1)NO` [Compound 25, (E)-N-Hydroxy-3-[1-(4-pyrazol-1-yl-benzenesulfonyl)-1H-pyrrol-3-yl]-acrylamide] as the molecule, how does the IC50 [1] read?
**A.** 70 to 5000 nM

**Q.** What about the melting point of the same molecule?
**A.** 160.7 to 166.6 °C

**Q.** For `Nc1ccccc1NC(=O)/C=C/c1ccn(S(=O)(=O)c2ccc(-c3ccccn3)s2)c1` [Compound 26, (E)-N-(2-Amino-phenyl)-3-[1-(5-pyridin-2-yl-thiophene-2-sulfonyl)-1H-pyrrol-3-yl]-acrylamide], which IC50 [1] is on record?
**A.** 70 to 5000 nM

**Q.** And the melting point?
**A.** 171.3 to 174.7 °C

**Q.** Which IC50 [1] does the source give for `O=C(/C=C/c1ccn(S(=O)(=O)c2ccc(CN3CCOCC3)cc2)c1)NO` [Compound 27, (E)-N-Hydroxy-3-[1-(4-morpholin-4-ylmethyl-benzenesulfonyl)-1H-pyrrol-3-yl]-acrylamide] here?
**A.** 70 to 5000 nM

**Q.** What about the melting point of the same molecule?
**A.** 168 to 170 °C

**Q.** Which IC50 [1] does the source give for `O=C(/C=C/c1ccn(S(=O)(=O)c2ccc(CN(CCO)CCc3cc4ccccc4[nH]3)cc2)c1)NO` [Compound 28, (E)-N-Hydroxy-3-{1-[4-({(2-hydroxy-ethyl)-[2-(1H-indol-2-yl)-ethyl]-amino}-methyl)-benzenesulfonyl]-1H-pyrrol-3-yl}-acrylamide] here?
**A.** 70 to 5000 nM
